Laboratory results as given in patent US12144811B2, “Combination of a 4-pyrimidinesulfamide derivative with an SGLT-2 inhibitor for the treatment of endothelin related diseases” (IDORSIA PHARMACEUTICALS LTD, priority 2017, dated 2024).

Assays:
[1] = system: conscious, male spontaneaously hypertensive rats; assay: Acute effects on MAP and HR by telemetry in SHRs; type: in vivo, rat
Description: The acute effects of ACT-132577 on blood pressure, in particular on mean arterial blood pressure (hereafter “MAP”), and heart rate (hereafter “HR”) can be evaluated by means of telemetry in conscious, male spontaneaously hypertensive rats (hereafter “SHRs”—see details about this model in Atanur et al., Genome Res. (2010), 20, 791-803). Groups of 4-6 SHRs are used for the vehicle (7.5% gelatin aqeuous solution) and each dose of ACT-132577 tested (1, 3, 10, 30, 100, and 300 mg/kg). Effects of ACT-132577 on HR and MAP are calculated for individual animals relative to the 24 h period before administering. The results obtained regarding MAP (maximal MAP decrease observed over 6 consecutive hours) are summarised in FIG. 5 (data are presented as mean±standard error of the mean). […] In contrast to MAP, HR was not affected.

[2] = system: Spontaneously hypertensive rats (SHR); assay: Blood pressure by telemetry in SHR, SGLT-2 inhibitor alone or in combination with ACT-132577; type: in vivo, rat
Source text: Spontaneously hypertensive rats (SHR) are instrumented micro-surgically with a telemetry pressure transmitter implanted in the peritoneal cavity (Data Science International, Minnesota, USA) under isoflurane-induced narcosis. In brief, the pressure catheter is inserted into the aorta, below the renal artery pointing upstream. The abdomen is closed and the transmitter sutured to the abdominal musculature. Blood pressure is collected continuously using the Dataquest ART Platinum acquisition system (version 4.36). Drugs (ACT-132577 or SGLT2 inhibitors) or vehicle are administered by gavage (n=4-7 per group) alone or in combination. Systolic, mean and diastolic arterial pressures, and heart rate are collected at 5-minute intervals until the blood pressure curve comes back to baseline.
Because it takes several days for the SGLT2 inhibitors to exert an effect on blood pressure, rats are treated first for 12 days with either vehicle (5 ml/kg/day), or canagliflozin (30 mg/kg/day) or empagliflozin (30 mg/kg/day), then ACT-132577 (30 mg/kg/day) is co-administered for 3 additional days.

[3] = system: conscious, male hypertensive deoxycorticosterone acetate salt rats; assay: Chronic effects of ACT-132577 in DOCA-salt rats; type: in vivo, rat
Source text: Res. (1975), 36, 300-309). In the DOCA-salt rats, hypertension is induced by the combination of unilateral nephrectomy, implantation of pellets of the mineralocorticoid analog DOCA, and provision of 1% sodium chloride in drinking water. The results of the DOCA-salt rats treated with ACT-132577 can be compared to those obtained for Wistar rats or for DOCA-salt rats that received only the vehicle (4% gelatin aqueous solution).

male Wistar rats = assay: Effect on fluid retention: haematocrit in Wistar rats; type: in vivo, rat; settings: single oral dose 1-30 mg/kg, 24 hours after administration
Description: A decrease in haematocrit (Hct) or haemoglobin occurs secondary to an increase in plasma volume and can be used as a marker of fluid retention. A single oral dose of ACT 132577 (1-30 mg/kg) or vehicle (gelatin) is administered by gavage to male Wistar rats. Twenty-four hours after administration, sublingual blood was sampled under isoflurane-induced anesthesia. Haematocrit is measured using a hematology analyser.

[4] = in comparison to corresponding alkylated derivatives; cited from earlier work
[5] = system: conscious, male hypertensive deoxycorticosterone acetate salt rats; assay: Acute effects on MAP and HR by telemetry in DOCA-salt rats; type: in vivo, rat
Source text: The acute effects of ACT-132577 on blood pressure, in particular on mean arterial blood pressure (hereafter “MAP”), and heart rate (hereafter “HR”) can be evaluated by means of telemetry in conscious, male hypertensive deoxycorticosterone acetate salt rats (hereafter “DOCA-salt rats”—see details about this model in Gavras et al., Circ. Res. (1975), 36, 300-309). In the DOCA-salt rats, hypertension is induced by the combination of unilateral nephrectomy, implantation of pellets of the mineralocorticoid analog DOCA, and provision of 1% sodium chloride in drinking water. Groups of 6-11 DOCA-salt rats are used for the vehicle (7.5% gelatin aqeuous solution) and each dose of ACT-132577 tested (0.3, 1, 3, 10, 30, 100, and 300 mg/kg). Effects of ACT-132577 on HR and MAP are calculated for individual animals relative to the 24 h period before administering. The results obtained regarding MAP (maximal MAP decrease observed over 6 consecutive hours) are summarised in FIG. 4 (data are presented as mean±standard error of the mean). […] In contrast to MAP, HR was not affected.

[6] = system: conscious, male hypertensive Dahl salt-sensitive rats; assay: Acute effects on MAP and HR by telemetry in Dahl salt-sensitive rats; type: in vivo, rat; settings: Dahl-S rats
Source text: The acute effects of ACT-132577 on blood pressure, in particular on mean arterial blood pressure (hereafter “MAP”), and heart rate (hereafter “HR”) can be evaluated by means of telemetry in conscious, male hypertensive Dahl salt-sensitive rats (hereafter “Dahl-S rats”—see details about this model in Rapp, Hypertension (1982), 4, 753-763). Elevated blood pressure is induced in Dahl-S rats by providing 1% sodium chloride in drinking water. Groups of 6-7 Dahl-S rats are used for the vehicle (7.5% gelatin aqeuous solution) and each dose of ACT-132577 tested (0.3, 1, 3, 10, 30, 100, and 300 mg/kg). Effects of ACT-132577 on HR and MAP are calculated for individual animals relative to the 24 h period before administering. The results obtained regarding MAP (maximal MAP decrease observed over 6 consecutive hours) are summarised in FIG. 3 (data are presented as mean±standard error of the mean). […] In contrast to MAP, HR was not affected.

[7] = system: conscious, male hypertensive deoxycorticosterone acetate salt rats; assay: Acute effects of Exforge HCT alone or with ACT-132577 or spironolactone in DOCA-salt rats; type: in vivo, rat
Source text: Res. (1975), 36, 300-309). In the DOCA-salt rats, hypertension is induced by the combination of unilateral nephrectomy, implantation of pellets of the mineralocorticoid analog DOCA, and provision of 1% sodium chloride in drinking water. 7-9 DOCA-salt rats per treatment group are used for this test. The results obtained regarding MAP are summarised in FIGS. 17 and 18 wherein each data point is presented as a 6-hour mean.

[8] = system: conscious, male spontaneaously hypertensive rats; assay: Acute effects of Exforge HCT alone or with ACT-132577 or spironolactone in SHRs; type: in vivo, rat
Description: The acute effects of Exforge HCT® (i.e. a fixed dose combination of valsartan/amlodipine/hydrochlorothiazide; dosage adapted for 1.6 mg/kg/0.1 mg/kg/0.25 mg/kg for valsartan/amlodipine/hydrochlorothiazide, respectively) on blood pressure, in particular on mean arterial blood pressure (hereafter “MAP”), and heart rate (hereafter “HR”) in combination with ACT-132577 or spironolactone can be evaluated by means of telemetry in conscious, male spontaneaously hypertensive rats (hereafter “SHRs”—see details about this model in Atanur et al., Genome Res. (2010), 20, 791-803).
9 SHRs per treatment group are used for this test. To match the maximal effect on blood pressure of co-administereds drug in this model, aprocitentan 100 mg/kg is administrated orally on the 3rd day following 3-day oral administration of Exforge HCT® mg/kg and spironolactone 300 mg/kg is co-administered orally with Exforge HCT® on the 1st day followed by 2 days of Exforge HCT® administration. The results obtained regarding MAP are summarised in FIGS. 15 and 16 wherein each data point is presented as a 6-hour mean.

[9] = chronic oral administration, DOCA-salt rats
[10] = oral, 1, 10 and 100 mg/kg/day for 4 weeks

NS(=O)(=O)Nc1ncnc(OCCOc2ncc(Br)cn2)c1-c1ccc(Br)cc1 [ACT-132577, {5-(4-bromo-phenyl)-6-[2-(5-bromo-pyrimidin-2-yloxy)-ethoxy]-pyrimidin-4-yl}-sulfamide]
Heart rate (HR) [1]: not affected
MAP decrease (maximal MAP decrease observed over 6 consecutive hours) ([1]; 100 mg/kg, mean±SEM): 18±4 mm Hg
Further decrease of blood pressure (MAP) on top of canagliflozin ([2]; ACT-132577 30 mg/kg/day for 3 days after 12 days canagliflozin 30 mg/kg/day): −14±1 mmHg
Further decrease of blood pressure (MAP) on top of empagliflozin ([2]; ACT-132577 30 mg/kg/day for 3 days after 12 days empagliflozin 30 mg/kg/day): −18±3 mmHg
Decrease in blood pressure (MAP) on top of vehicle, without canagliflozin ([2]; ACT-132577 30 mg/kg/day on top of vehicle (canagliflozin comparison)): −16±2 mmHg
Decrease in blood pressure (MAP) on top of vehicle, without empagliflozin ([2]; ACT-132577 30 mg/kg/day on top of vehicle (empagliflozin comparison)): −14±2 mmHg
Left ventricular hypertrophy [3, 9]: tended to decrease
Plasma concentrations of N-terminal pro-brain natriuretic peptide (NTproBNP) [3, 9]: dose-dependent decrease
Renal blood flow [3, 9]: dose-dependently increased
Renal vascular resistance [3, 9]: decreased
DOCA-salt-induced increase in MAP [3, 10]: dose-dependently attenuated
Heart rate (HR) [3, 10]: without changing HR
Haematocrit (Hct), marker of fluid retention (male Wistar rats): did not impact
Clearance in vivo [4]: much shorter
Half-life in vivo [4]: much longer
Heart rate (HR) [5]: not affected
MAP decrease (maximal MAP decrease observed over 6 consecutive hours) ([5]; 10 mg/kg, mean±SEM): 29±6 mm Hg
Heart rate (HR) [6]: not affected
MAP decrease (maximal MAP decrease observed over 6 consecutive hours) ([6]; 10 mg/kg, mean±SEM): 19±4 mm Hg
Blood pressure when added on top of Exforge HCT ([7]; aprocitentan 10 mg/kg or spironolactone 300 mg/kg, single oral doses): further reduced blood pressure
Blood pressure reduction compared with spironolactone, on top of Exforge HCT ([7]; aprocitentan 10 mg/kg vs spironolactone 300 mg/kg): greater blood pressure reduction than spironolactone
Blood pressure when added on top of Exforge HCT ([8]; aprocitentan 100 mg/kg or spironolactone 300 mg/kg oral): further reduced blood pressure
Blood pressure reduction compared with spironolactone, on top of Exforge HCT ([8]; aprocitentan 100 mg/kg vs spironolactone 300 mg/kg): greater blood pressure reduction than spironolactone
